Where two headings read alike, the source gives them in different places.
Experiments:
[1] = target: T1, Arabidopsis thaliana HPPD (SEQ ID No. 10) (Arabidopsis thaliana, UniProt P93836); assay: Spectrophotometric HPPD activity assay in presence of HPPD inhibitors; type: biochemical; conditions: for inhibition at 5 µM: read-out: percentage of inhibition
T1 construct: made in house; host or cells: E. coli K-12 BL21 (pQE30-AtHPPD)
T1 sequence (P93836 with tags, fused parts or gaps): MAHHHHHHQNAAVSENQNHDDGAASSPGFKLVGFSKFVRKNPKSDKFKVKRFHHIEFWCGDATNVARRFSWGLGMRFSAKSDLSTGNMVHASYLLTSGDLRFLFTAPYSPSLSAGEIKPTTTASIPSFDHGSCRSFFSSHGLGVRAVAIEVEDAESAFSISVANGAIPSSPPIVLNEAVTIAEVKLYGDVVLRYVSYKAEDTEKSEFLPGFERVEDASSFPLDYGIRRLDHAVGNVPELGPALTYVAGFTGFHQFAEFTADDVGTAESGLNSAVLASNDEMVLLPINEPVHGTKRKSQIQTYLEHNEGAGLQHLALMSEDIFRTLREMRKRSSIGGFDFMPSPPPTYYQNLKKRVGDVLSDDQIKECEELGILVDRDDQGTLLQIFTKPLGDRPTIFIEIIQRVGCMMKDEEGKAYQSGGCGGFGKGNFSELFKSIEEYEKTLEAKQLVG

[2] = target: T2, Blepharisma japonicum HPPD (SEQ ID No. 5) (Blepharisma japonicum, UniProt A8R3H6); assay: biochemical; conditions: for inhibition at 5 µM: read-out: percentage of inhibition
T2 sequence (A8R3H6 entry or part of it): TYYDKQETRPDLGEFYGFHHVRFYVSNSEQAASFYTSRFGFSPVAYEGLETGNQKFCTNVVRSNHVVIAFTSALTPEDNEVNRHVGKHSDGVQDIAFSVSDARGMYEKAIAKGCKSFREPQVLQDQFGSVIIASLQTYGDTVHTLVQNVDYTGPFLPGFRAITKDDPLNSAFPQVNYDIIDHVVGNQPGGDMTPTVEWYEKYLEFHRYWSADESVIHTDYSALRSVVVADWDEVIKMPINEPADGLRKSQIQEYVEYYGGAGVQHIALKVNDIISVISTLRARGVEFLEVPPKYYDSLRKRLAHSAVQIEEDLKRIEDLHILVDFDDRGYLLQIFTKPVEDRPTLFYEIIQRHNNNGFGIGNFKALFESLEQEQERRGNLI

[3] = system: leaf disks of tobacco plants containing HPPD SEQ ID No. 11 (Arabidopsis thaliana); assay: Leaf disk regeneration on media with HPPD inhibitors; type: cell-based, Nicotiana tabacum; conditions: 10^−6 M, 6 weeks
Experimental: (§1) At the end of the experiments the level of regeneration was evaluated as followed:
(§2) “−” means that the leaf disks looked the same as leaf disk from wild type tobacco plants on media supplemented with the inhibitor mentioned above. “++++” means that the leaf disks looked like the leaf disks from the wild type tobacco plants on media without inhibitor. “+”, “++”, and “+++” indicate regenerated leaf disks were heavily (+), medium (++) and less (+++) affected by the presence of the inhibitors.

[4] = system: leaf disks of tobacco plants containing HPPD SEQ ID No. 7 (Blepharisma japonicum); assay: as above; type: cell-based, Nicotiana tabacum; design: key to the marks not given beside the values; conditions: 10^−6 M, 6 weeks
Experimental: as §1, §2

[5] = system: T1 tobacco plants carrying FMP37e (kanamycin selected); assay: Glasshouse response to bicyclopyrone, injury classes; type: in vivo, Nicotiana tabacum; conditions: 7 DAT
Description: (§3) Seeds of wild type tobacco plants and T1 tobacco plants carrying the gene from Blepharisma japonicum FMP37e coding for HPPD were sown on MS media (Murashige and Skoog […]) supplemented with […] kanamycin. After 4 weeks, rooted green plantlets were transferred to soil and grown for 3 weeks in the glasshouse as described above then sprayed with a mixture containing bicyclopyrone (100 g Al/ha), ammonium sulfate and methyl ester raps oil. The plants were classified in two categories based on the phenotype developed in response to the herbicide seven days after the treatment. […] In this case, only plants containing at least one T-DNA were exposed to the herbicidal treatment.

wild type tobacco plants = assay: as above; type: in vivo, Nicotiana tabacum; conditions: WT, 100 g Al/ha, 7 DAT
Description: as §3

[6] = target: T2, Blepharisma japonicum HPPD (SEQ ID No. 5); assay: HPLC assay of HPPD in vitro kinetic properties; type: biochemical
Experimental: Km, Vmax, and kcat values for different HPPD enzyme preparations and Ki, K1=Kon, and K−1=Koff for different HPPD inhibitors were determined using a HPLC assay for measurements of HPPD activity. […] All assays were started by the addition of HPPD enzyme to the assay mixture and stopped at a series of times between 0 and 240 s by addition of 200 μl of the reaction mixture to reaction assay tubes containing 20 μl 10% perchloric acid. Precipitated protein was pelleted by a 5 minute centrifugation at 10,000 g. […] A standard set of concentrations of HGA were used to provide a standard curve in order to calibrate the 292 nm absorbance of the HGA peak versus HGA concentration.
For Km and Vmax value determinations the initial rates of the HPPD reaction at different substrate concentrations were determined from plots of HGA formed versus time and fitted to the Michaelis-Menten equation for unireactant enzymes using the ID Business Solutions Ltd. (www.idbs.com) XLfit software suite. For the determination of Ki, K1=Kon, and Ki=Koff values the time-courses of the HPPD reaction at different inhibitor concentrations were fitted to the equations for Mechanism A, competitive inhibition, for tight-binding inhibitors (Cha, S. (1975) Tight-binding inhibitors—I. Kinetic behaviour. Biochemical Pharmacology 24, 2177-2185) using the ID Business Solutions Ltd. XLfit software suite

[7] = system: tobacco plants with FMP37t-h, PAT and 2mEPSPS (pFCO112); assay: Glasshouse trial of tobacco with three tolerance genes; type: in vivo, Nicotiana tobacum; conditions: 9 DAT
Experimental: A binary vector for tobacco transformation is, for example, constructed with the CaMV35 promoter driving the expression of the gene FMP37t-h (SEQ ID No. 15), with a codon usage optimized for the expression in dicotyledoneous plants and at its 5′ extremity was added a sequence coding for an OTP, and further upstream a sequence TEV (Tobacco etch virus) to improve the stability of the mRNA in plants followed by the CaMV35S terminator. The nucleotide sequence of the gene FMP37t-h is given in SEQ ID No. 15. Additionally, the transformation vector also contains a PAT gene cassette in which the gene is driven by a CaVM35S promoter and followed by a CaMV35S terminator for glufosinate based selection during the transformation process and a 2mEPSPS gene cassette in which the gene is driven by an histone promoter from Arabidopsis to confer tolerance to the herbicide glyphosate to the transformed plants (see FIG. 3 H). The binary vector was called pFCO112. The above vector was used to transform leaf disks obtained from Nicotiana tobacum plants, according to Example 3.
Transgenic tobacco plants were transferred to the greenhouse and treated with glyphosate at a rate of 1121 g Al/ha. Seeds were produced from such tolerant tobacco plants and harvested. These seeds were put on soil to germinate in the glasshouse. Three to four weeks later, 50 plantlets per event were transferred to single pots. Two weeks later, plants of a size 4-6 cm were sprayed either with:
[…] […] Non-transgenic tobacco plants were completely killed by treatment using one or more of the above herbicides.

[8] = target: T1, Arabidopsis thaliana HPPD (SEQ ID No. 10); assay: HPLC assay of HPPD in vitro kinetic properties; type: biochemical; conditions: substrate HPP 10-400 μM, pH 7.8
Experimental: Km, Vmax, and kcat values for different HPPD enzyme preparations and Ki, K1=Kon, and K−1=Koff for different HPPD inhibitors were determined using a HPLC assay for measurements of HPPD activity. […] All assays were started by the addition of HPPD enzyme to the assay mixture and stopped at a series of times between 0 and 240 s by addition of 200 μl of the reaction mixture to reaction assay tubes containing 20 μl 10% perchloric acid. Precipitated protein was pelleted by a 5 minute centrifugation at 10,000 g.
For Km and Vmax value determinations the initial rates of the HPPD reaction at different substrate concentrations were determined from plots of HGA formed versus time and fitted to the Michaelis-Menten equation for unireactant enzymes using the ID Business Solutions Ltd. (www.idbs.com) XLfit software suite.

[9] = 5.0 × 10^−6M inhibitor (Table 4)
[10] = substrate HPP 10-400 μM, pH 7.8

COCCOCc1nc(C(F)(F)F)ccc1C(=O)C1=C(O)C2CCC(C2)C1=O (stereo not drawn) [Bicyclopyrone, 4-hydroxy-3-[[2-[(2-methoxyethoxy)methyl]-6-(trifluoromethyl)-3-pyridinyl]carbonyl]bicyclo[3.2.1]oct-3-en-2-one]
IC50 [1]: 6.31 µM
inhibition at 5 µM [1]: 29%
IC50 ([2]; read-out: pI50 (converted)): 200 µM
inhibition at 5 µM [2]: 0%
level of regeneration of leaf disks [3]: −
level of regeneration of leaf disks [4]: ++++
% of tolerant plant ([5]; line 113, 100 g Al/ha): 56%
number of plants in Class I (injury: 0-30%) ([5]; line 113, 100 g Al/ha): 60
number of plants in Class II (injury: 31-100%) ([5]; line 113, 100 g Al/ha): 78
% of tolerant plant ([5]; line 207, 100 g Al/ha): >60%
number of plants in Class I (injury: 0-30%) ([5]; line 207, 100 g Al/ha): 65
number of plants in Class II (injury: 31-100%) ([5]; line 207, 100 g Al/ha): >100
% of tolerant plant ([5]; line 208, 100 g Al/ha): 67%
number of plants in Class I (injury: 0-30%) ([5]; line 208, 100 g Al/ha): 44
number of plants in Class II (injury: 31-100%) ([5]; line 208, 100 g Al/ha): 90
number of plants in Class I (injury: 0-30%) (wild type tobacco plants): 0
number of plants in Class II (injury: 31-100%) (wild type tobacco plants): 12

CS(=O)(=O)c1cc(C(F)(F)F)ccc1C(=O)C(C#N)C(=O)C1CC1 (stereo not drawn) [Diketonitrile, 2-cyano-3-cyclopropyl-1-(2-methylsulphonyl-4-trifluoromethylphenyl)-propane-1,3-dione]
Ki [6]: 6.6 µM
inhibition at 5 µM [1, 9]: 87%

O=C(O)CNCP(=O)(O)O [Glyphosate]
number of plants in Class I (no injuries) ([7]; line 634, 1121 g AI/ha): 10
number of plants in Class II (injury: 10-40%) ([7]; line 634, 1121 g AI/ha): 0
number of plants in Class III (injury: 41-100%) ([7]; line 634, 1121 g AI/ha): 0
number of plants in Class I (no injuries) ([7]; line 713, 1121 g AI/ha): 10
number of plants in Class II (injury: 10-40%) ([7]; line 713, 1121 g AI/ha): 0
number of plants in Class III (injury: 41-100%) ([7]; line 713, 1121 g AI/ha): 0

CS(=O)(=O)c1ccc(C(=O)C2C(=O)CCCC2=O)c(Cl)c1COCC1CCCO1 (stereo not drawn) [Tefuryltrione, 2-[2-chloro-4-(methylsulfonyl)-3-[[(tetrahydro-2-furanyl)methoxy]methyl]benzoyl]-1,3-cyclohexanedione]
inhibition at 5 µM [1, 9]: 100%

O=C(O)C(=O)Cc1ccc(O)cc1 [HPP, para-hydroxyphenylpyruvate]
Km [8]: 6.3 µM
Vmax [8]: 1.2 µM
Km [6, 10]: 83 µM
Vmax [6, 10]: 0.1 µM

Cc1ccc(C(=O)COc2c(C(=O)c3ccc(Cl)c(C)c3Cl)c(C)nn2C)cc1 [Benzofenap]
IC50 ([1]; read-out: pI50 (converted)): < 2.51 µM
inhibition at 5 µM [1]: 90%
IC50 ([2]; read-out: pI50 (converted)): 3.16 µM
inhibition at 5 µM [2]: 85%

CS(=O)(=O)c1ccc(C(=O)C2C(=O)CCCC2=O)c([N+](=O)[O-])c1 [Mesotrione, 2-[4-(methylsulfonyl)-2-nitrobenzoyl]-1,3-cyclohexanedione]
IC50 [1]: < 2.51 µM
inhibition at 5 µM [1, 9]: 86%
level of regeneration of leaf disks [3]: −
level of regeneration of leaf disks [4]: ++++

Cc1nn(C)c(O)c1C(=O)c1ccc(C(F)(F)F)cc1S(C)(=O)=O [Pyrasulfotole]
pI50 ([1]; 2 mM HPP, 3 minutes incubation): 5.4
percentage of inhibition [1, 9]: 69%
pI50 ([2]; 2 mM HPP, 3 minutes incubation): 4.4
percentage of inhibition [2, 9]: 0%

Cc1ccc(S(=O)(=O)Oc2c(C(=O)c3ccc(Cl)cc3Cl)c(C)nn2C)cc1 [Pyrazolate]
inhibition at 5 µM [1, 9]: 61%
IC50 ([1]; read-out: pI50 (converted)): 3.98 µM
IC50 [2]: 20 µM
inhibition at 5 µM [2]: 0%

CS(=O)(=O)c1ccc(C(=O)C2C(=O)CCCC2=O)c(Cl)c1 [Sulcotrione, 2-[2-chloro-4-(methylsulfonyl)benzoyl]-1,3-cyclohexanedione]
IC50 [1]: < 2.51 µM
inhibition at 5 µM [1]: 74%

CP(=O)(O)CCC(N)C(=O)O (stereo not drawn) [Glufosinate-ammonium]
number of plants in Class I (no injuries) ([7]; line 634, 1000 g AI/ha): 10
number of plants in Class II (injury: 10-40%) ([7]; line 634, 1000 g AI/ha): 0
number of plants in Class III (injury: 41-100%) ([7]; line 634, 1000 g AI/ha): 0
number of plants in Class I (no injuries) ([7]; line 713, 1000 g AI/ha): 10
number of plants in Class II (injury: 10-40%) ([7]; line 713, 1000 g AI/ha): 0
number of plants in Class III (injury: 41-100%) ([7]; line 713, 1000 g AI/ha): 0

Reference: US20110191897A1, “Plants Tolerant to HPPD Inhibitor Herbicides” (Bayer CropScience AG, priority 2009, published 2011)
